Reference: patent US20100055111A1, “INDOLEAMINE 2,3-DIOXYGENASE, PD-1/PD-L PATHWAYS, AND CTLA4 PATHWAYS IN THE ACTIVATION OF REGULATORY T CELLS” (Med. College of Georgia Research Institute, Inc., priority 2007, published 2010)
“Also recorded” adds a separate entry of the source.

Assays:
TDLN cells = format: in vivo, mouse
P815 = conditions: Uyttenhove et al., 2003; concomitant administration of 1-MT; cited from earlier work
Tregs [1] = assay: Mixed co-cultures with bystander A1 cells; format: cell-based, mouse
Protocol: A1 T cells and CBA DCs were added directly to the Treg pre-activation assay at the start of culture. Thus, the combined cultures comprised IDO^+ pDCs, OT-I T cells, Tregs, A1 T cells, CBA splenic DCs, and feeder layer. […] However, the mixed co-cultures addressed the specific question of whether IDO and activated Tregs could produce effective levels of suppression rapidly enough that they could suppress the bystander A1 cells before they could begin dividing. […] In each case, parallel titrations were performed with or without the addition of anti-CD3 mAb. […] In the absence of Tregs there was substantial proliferation of T cells in co-cultures, despite the presence of IDO^+ pDCs. However, the addition of fewer than 5000 Tregs was sufficient to suppress proliferation of all cells in culture. […] Thus, the results of the mixed co-culture model were similar to those using the separate pre-activation and re-sorting step.
In FIG. 12A, mixed co-cultures were established as in FIG. 11, comprising Treg activation cultures (IDO^+ pDCs, OT-I cells, Tregs, and feeder layer) plus the direct addition of CFSE-labeled CD4^+ sorted A1 T cells plus CBA DCs plus HY peptide. After 2-3 days the mixed co-cultures were harvested and stained for CD25 versus CFSE. […] In FIG. 12B, IDO-activated Tregs were sorted as described in FIG. 2 and added to readout assays of A1 cells plus CBA DCs plus HY peptide. […]

Tregs [2] = assay: Treg activation culture and readout assays (agent in pre-activation step); format: cell-based, mouse; conditions: for IDO-induced Treg activation (suppressor activity of re-sorted Tregs in readout assays): agent added to activation (pre-activation) cultures with TDLN pDCs + OT-I + feeder cells, 1MT 200 uM, anti-CTLA4 10 ug/ml, tryptophan 250 uM, readout A1 T cells + CBA DCs
Protocol: Treg activation culture and readout assays. […] The pDC fraction (CD11c^+B220^+) was sorted from 2-6 pooled TDLNs (day 7-11 of tumor growth) and collected in medium on ice. […] […] […] After two days, cultures were harvested, stained for CD4, and Tregs isolated by sorting for CD4^+ cells. […] Re-sorted Tregs were added to readout assays containing 1×10^5 A1 cells, 2×10^3 CD11c^+ DCs from CBA spleen (or 5×10^4 B cells, as CD11c^NEG B220^+ spleen cells), plus H-Y peptide. For assays performed in transwells, Multiwell 96-well insert plates (1 uM pore size, BD-Falcon) were used and the number of cells in all groups was doubled.
Feeder layer. […] As a feeder layer we added T cell-depleted spleen cells (1×10^5 sorted CD4^NEGCD8^NEG cells) to all assays.
Resting Tregs, from spleens of mice without tumors, were co-cultured with IDO^+ DCs from TDLNs, then re-sorted and transferred to readout assays (A1 T cells+CBA DCs) to measure suppression. […] Co-cultures also contained a feeder layer of T-depleted spleen cells as described in the Methods section. After 30-48 hours, co-cultures were harvested and the Tregs recovered by sorting for CD4^+ cells. Since the Tregs were the only CD4^+ cells in the co-cultures, they could be unambiguously recovered.

CHOP = assay: Intracellular staining for CHOP in Treg activation cultures; format: cell-based, mouse; conditions: 2 days
Protocol: (§1) FACS staining. Antibodies were from BD-Pharmingen unless otherwise noted. Anti-mouse CD25-APC conjugate (clone PC61, cat. #17-0251-81) was from eBioscience; this conjugate gave brighter signal and better separation of CD25^+ cells than other conjugates from other suppliers. For intracellular staining of CHOP, live cells were first blocked for 10 minutes with mouse Fc Block (BD Pharmingen) in 10% fetal calf serum medium, stained with anti-CD4-FITC for 30 minutes on ice, washed with PBS, then fixed and permeablized for 20 minutes in 250 μl Cytoperm/Cytofix solution (BD Pharmingen) on ice. All subsequent staining and wash steps were in BD Permwash solution. Fixed cells were stained with 1:100 dilution of monoclonal anti-gadd153/CHOP (sc-7351, Santa Cruz Biotechnology), washed, and stained with secondary monoclonal rat anti-mouse-IgG1-PE (#550083, BD Biosciences). […] For Foxp3 staining, anti-Foxp3-PE antibody (clone FJK-16s) was obtained from eBioscience and used per the manufacturer's protocol. For Foxp3 staining, assays omitted A1 bystander cells and Tregs were identified by CD4 expression, as for CHOP staining. Biotinylated anti-PD-L1 (clone MIH5) and anti-PD-L2 (clone TY25) were purchased from eBioscience.
GCN2-kinase is required for Treg activation. […] Treg activation cultures were set up as in FIG. 2, and CHOP expression measured by intracellular staining after two days.

PD-L1 and PD-L2 = PD-L1 and PD-L2 staining of DCs in readout assays; format: cell-based, mouse; conditions: Tregs from pre-activation cultures in which IDO was blocked with 1MT
Protocol: as §1, with “For Foxp3 staining, assays omitted A1 bystander cells and Tregs were identified by CD4 expression, as for CHOP staining. Biotinylated anti-PD-L1 (clone MIH5) and anti-PD-L2 (clone TY25) were purchased from eBioscience.” left out
After 24 hours, cultures were harvested and stained for PD-L1 and PD-L2 relative to CD11c. […] In FIG. 3D, IDO-activated Tregs (1×10^4/well) and anti-CD3/IL-2-activated Tregs (2×10^4/well) were prepared as in the previous panel, and added to readout assays with or without recombinant IL-2, anti-IL-10 plus anti-TGF-β blocking antibodies (100 μg/ml each), or PD-1/PD-L blocking antibodies. […]

Tregs in TDLNs = conditions: sustained-release 1MT throughout tumor growth
Protocol: Recombinant mouse IL-2 (R&D Systems) was used at 10 ng/ml.
Tregs from day seven TDLNs were sorted and added to readout assays (A1 T cells plus CBA DCs), with and without PD-1/PD-L blocking antibodies. […] Tregs from day seven tumors were tested in readout assays as above, with added isotype, PD-1/PD-L blocking antibodies, or a combination of anti-PD-1/PD-L plus IL-2 plus anti-IL-10/TGF-β antibodies.

Foxp3 = Foxp3 upregulation in naive CD4+CD25NEG A1 T cells in cocultures with IDO+ pDCs; format: cell-based, mouse
Protocol: FACS staining. Antibodies were from BD-Pharmingen unless otherwise noted. […] For intracellular staining of CHOP, live cells were first blocked for 10 minutes with mouse Fc Block (BD Pharmingen) in 10% fetal calf serum medium, stained with anti-CD4-FITC for 30 minutes on ice, washed with PBS, then fixed and permeablized for 20 minutes in 250 μl Cytoperm/Cytofix solution (BD Pharmingen) on ice. All subsequent staining and wash steps were in BD Permwash solution. […] For Foxp3 staining, assays omitted A1 bystander cells and Tregs were identified by CD4 expression, as for CHOP staining.
Therefore, whether IDO would induce naive CD4+ cells to differentiate into Foxp3^+ cells in this system was studied. Cocultures were set up as shown for FIG. 6A, comprising IDO^+ pDCs, OT-I, feeder cells, mature Tregs (Thy1.1 congenic), plus a population of CD4^+CD25^NEG T cells (naive male-specific A1 T cells isolated from female mice). CBA splenic DCs were also added to serve as APCs for the A1 cells. After two days, co-cultures were harvested and stained for intracellular Foxp3.

Lewis Lung carcinoma = conditions: Friberg et al., 2002; cited from earlier work
Tregs [3] = assay: DC adoptive transfer; format: in vivo, mouse; conditions: recipient mice treated with sustained-release 1MT pellets 5 mg/day; Tregs sorted after 4 days
Source text: DC adoptive transfer. […] Briefly, total CD11c^+ DCs were sorted from TDLNs, pulsed with […] peptide (SEQ ID NO:1), and 5×10^4 DCs injected subcutaneously into each anteriomedial thigh of recipient mice. Recipients had been pre-loaded one day before DC injection with 5×10^6 sorted CD8^+ OT-I cells. After four days, the inguinal LNs draining the site of DC injection were removed, and CD4^+CD25^+ Tregs were isolated by cell sorting.
IDO^+ DCs from TDLNs activate Tregs in vivo. To test the hypothesis that Treg activation in TDLNs might be related to the presence of IDO-expressing DCs, the DC population (CD11c^+ cells) from TDLNs was isolated and transferred to new, non-tumor-bearing hosts. […] Four days after DC transfer, host Tregs were sorted from LNs draining the site of DC injection and tested for suppressor activity. […] Thus, the DC fraction from TDLNs, by itself, was sufficient to activate resting Tregs in new hosts, in an IDO-dependent fashion.

OT-I cells in TDLNs = assay: CFSE labeling and T cell adoptive transfer; format: in vivo, mouse; conditions: B16-OVA tumors, 4 days after transfer
Source text: CFSE labeling and T cell adoptive transfer. Mice were implanted with B16-OVA tumors. […] After four days, the TDLNs and contralateral LNs (CLN) were harvested and stained for 1B11 (BD-Pharmingen) vs. CD8.

anti-CD3-activated Tregs = assay: Readout assays: suppression by anti-CD3/IL-2-activated Tregs; format: cell-based, mouse; conditions: agent added to readout assay
Protocol: Treg activation culture and readout assays. […] The pDC fraction (CD11c^+B220^+) was sorted from 2-6 pooled TDLNs (day 7-11 of tumor growth) and collected in medium on ice. Pre-activation cultures contained 2×10^3 pDCs, 1×10^5 sorted CD8^+ OT-I cells, 100 nM […] peptide (SEQ ID NO:1), and 5×10^3 sorted CD4^+CD25^+ Tregs from spleens of B6 mice without tumors. All cultures received a feeder layer of 1×10^5 T cell-depleted spleen cells (CD4^NEGCD8^NEG), as described below. […] After two days, cultures were harvested, stained for CD4, and Tregs isolated by sorting for CD4^+ cells. […] Re-sorted Tregs were added to readout assays containing 1×10^5 A1 cells, 2×10^3 CD11c^+ DCs from CBA spleen (or 5×10^4 B cells, as CD11c^NEG B220^+ spleen cells), plus H-Y peptide. For assays performed in transwells, Multiwell 96-well insert plates (1 uM pore size, BD-Falcon) were used and the number of cells in all groups was doubled.
After 24 hours, cultures were harvested and stained for PD-L1 and PD-L2 relative to CD11c. […] In FIG. 3D, IDO-activated Tregs (1×10^4/well) and anti-CD3/IL-2-activated Tregs (2×10^4/well) were prepared as in the previous panel, and added to readout assays with or without recombinant IL-2, anti-IL-10 plus anti-TGF-β blocking antibodies (100 μg/ml each), or PD-1/PD-L blocking antibodies. Bars show SD for replicate wells in one of four similar experiments; *p<0.01 by ANOVA.

IDO-activated Tregs = assay: Readout assays: suppression of A1 T cell proliferation by IDO-activated Tregs (agent in readout assay); format: cell-based, mouse; conditions: agent added to readout assay (A1 T cells + wild-type CBA DCs); antibodies 50 ug/ml each
Protocol: Treg activation culture and readout assays. […] The pDC fraction (CD11c^+B220^+) was sorted from 2-6 pooled TDLNs (day 7-11 of tumor growth) and collected in medium on ice. […] All cultures received a feeder layer of 1×10^5 T cell-depleted spleen cells (CD4^NEGCD8^NEG), as described below. […] After two days, cultures were harvested, stained for CD4, and Tregs isolated by sorting for CD4^+ cells. […] Re-sorted Tregs were added to readout assays containing 1×10^5 A1 cells, 2×10^3 CD11c^+ DCs from CBA spleen (or 5×10^4 B cells, as CD11c^NEG B220^+ spleen cells), plus H-Y peptide. For assays performed in transwells, Multiwell 96-well insert plates (1 uM pore size, BD-Falcon) were used and the number of cells in all groups was doubled.

O=P1(N(CCCl)CCCl)NCCCO1 (centres unmarked) [cyclophosphamide]
suppressor activity of TDLN cells after in vivo treatment (TDLN cells; B78H1-GMCSF tumors treated day 11, CY 150 mg/kg, 1MT pellets, TDLN cells 7 days later, readout BM3 T cells + B6 splenocytes): only slightly

Cn1cc(C[C@@H](N)C(=O)O)c2ccccc21 [1MT, 1-methyl-D-tryptophan]
suppression by TDLN cells of untreated control mice (TDLN cells; 1MT added to the readout assays): not affected
effect of IDO transfection of P815 on tumor growth in pre-immunized hosts (P815): substantially reversed
suppressor activity of Tregs in mixed co-cultures (Tregs [1]; IDO blocked by 1MT, 10-fold more Tregs, absence of anti-CD3 mAb): no spontaneous suppressor activity
division of A1CFSE cells in mixed co-cultures (Tregs [1]; plus 1MT, 2-3 days): able to divide
IDO-induced Treg activation (suppressor activity of re-sorted Tregs in readout assays) (Tregs [2]): no suppressor activity; also recorded: complete abrogation of activation; also recorded: minimal suppression; also recorded: completely abolished
Treg activation (Tregs [2]; feeder layer replaced by recombinant cytokines (IFNα + IL-10 + TGF-β1)): abrogated
CHOP expression in OT-I cells (CHOP): abrogated
CHOP induction in Tregs (CHOP; anti-Ia^b 100 ug/ml): prevented
PD-ligand expression by DCs in readout assays (PD-L1 and PD-L2): low
PD-1/PD-L-dependent type of Treg activity in TDLNs (Tregs in TDLNs): none
cell division of A1 cells (CFSE) (Foxp3; CFSE-labeled A1 and OT-I cells): divided
upregulation of Foxp3 in A1 cells (Foxp3; with H-Y peptide, 2 days): prevented
tumor outgrowth (Lewis Lung carcinoma): significantly delayed
activation of host Tregs by DCs from TDLNs (Tregs [3]): blocked
1B11 activation marker on OT-I in TDLNs (OT-I cells in TDLNs; oral 1MT 2 mg/ml in drinking water): uniformly upregulate
cell division of OT-I in TDLNs (CFSE) (OT-I cells in TDLNs; oral 1MT): not able to undergo extensive cell division

N[C@@H](Cc1c[nH]c2ccccc12)C(=O)O [tryptophan]
IDO-induced Treg activation (suppressor activity of re-sorted Tregs in readout assays) (Tregs [2]): blocked

B1: recombinant IL-2: Recombinant mouse IL-2 (R&D Systems), used at 10 ng/ml (protein, UniProt P04351 21-169, looked up)
Interleukin-2: APTSSSTSSSTAEAQQQQQQQQQQQQHLEQLLMDLQELLSRMENYRNLKLPRMLTFKFYLPKQATELKDLQCLEDELGPLRHVLDLTQSKSFQLEDAENFISNIRVTVVKLKGSDNTFECQFDDESATVVDFLRRWIAFCQSIISTSPQ
suppression by anti-CD3-activated Tregs (anti-CD3-activated Tregs): fully reversed
suppression of T cell proliferation by IDO-activated Tregs (IDO-activated Tregs): no effect
